Assays:
[1] = target: T1, Abscisic acid 8'-hydroxylase 3 (Arabidopsis thaliana, UniProt Q9FH76); test: Inhibitory activity against recombinant CYP707A3 in Arabidopsis
T1 sequence (Q9FH76 whole entry): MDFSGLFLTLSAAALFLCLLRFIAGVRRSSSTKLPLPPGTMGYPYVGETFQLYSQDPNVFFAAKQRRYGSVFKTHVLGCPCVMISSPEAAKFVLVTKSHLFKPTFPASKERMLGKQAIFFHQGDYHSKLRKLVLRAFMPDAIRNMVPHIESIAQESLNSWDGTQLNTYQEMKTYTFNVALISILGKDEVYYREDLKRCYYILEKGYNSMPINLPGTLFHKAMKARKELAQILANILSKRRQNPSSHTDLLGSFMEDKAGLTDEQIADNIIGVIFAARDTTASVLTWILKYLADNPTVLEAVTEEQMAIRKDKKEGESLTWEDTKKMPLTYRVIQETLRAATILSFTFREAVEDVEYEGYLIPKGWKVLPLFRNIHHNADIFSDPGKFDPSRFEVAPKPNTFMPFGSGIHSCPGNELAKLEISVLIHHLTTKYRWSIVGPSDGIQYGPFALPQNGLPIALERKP

[2] = target: T1, Abscisic acid 8'-hydroxylase 3; test: Inhibitory activity against recombinant CYP707A3 in Arabidopsis at 50 uM
[3] = test system: Lactuca sativa; test: Effect on seed germination in lettuce (Lactuca sativa L.Cv Grand Rapids); assay type: functional, organism-based
[4] = test system: Oryza sativa; test: Effect on seed elongation in Rice (Oryza sativa L.Cv.Nipponbare); assay type: functional, organism-based

Ki [1] [nM]	inhibition at 50 µM [2] [%]	IC50 [1] [nM]	Compound	IC50 [3] [nM]	IC50 [4] [nM]
170			CC1=CC(=O)C[C@](C)(C(F)F)[C@@]1(O)/C=C/C(C)=C\C(=O)O		
400	90.9	910	C[C@H]1CCCC(C)(C)[C@@]1(O)/C=C/C=C\C(=O)O (racemic)	> 300000	> 300000
410	94	630	C[C@H]1CCC[C@](C)(C(F)F)[C@@]1(O)/C=C/C=C\C(=O)O (racemic)	150000	> 300000
			CC1=CC(=O)CC(C)(C)[C@@]1(O)/C=C/C(C)=C\C(=O)O [(+)-ABSCISIC ACID]	12000	2000

From ChEMBL document CHEMBL1141968, “A lead compound for the development of ABA 8'-hydroxylase inhibitors” (Bioorg Med Chem Lett, 2005)
